Two compounds from patent US20110009497A1, “DRUG-CONTAINING COMPOSITION” (FUJIFILM CORPORATION, priority 2008, published 2011) can be followed below.

The target in experiment [1] is T1, human albumin (His-tag fusion protein) (Homo sapiens, UniProt P02768).
T1 construct: made in house; host or cells: Escherichia coli BL21 (DE3) Codon-plus, vector pQE30 Xa (QIAGEN)
Description: Elution by human serum of vitamin D3 bound to His-tag fusion albumin immobilised on Ni-column, HPLC quantification (Comparative Example 1). It counts as binding. Conditions: carrier His-tag fusion albumin on Ni-column; human serum 20 ml at 0.1 ml/min, then buffer. The protocol: (§1) A human albumin sequence was expressed with the use of Escherichia coli BL21 (DE3) Codon-plus as a His-tag fusion protein (using a vector (pQE30 Xa; QIAGEN)). For culture, an LB (Luria-Bertani) medium containing 100 μg/ml ampicillin was used. Preculture was carried out with the use of a 300-mL LB medium contained in a 500-mL Erlenmeyer flask at 37° C. Then, for main culture, 30 mL of the preculture solution was added to a 1.5-L LB medium (containing 100 μg/ml ampicillin) contained in a 3-L baffled Erlenmeyer flask and subjected to shake culture at 37° C. so as to result in 0.6 OD600. Thereafter, IPTG was added thereto to a final concentration of 0.5 mM for expression induction, followed by overnight shake culture at 30° C. Subsequently, cells were collected by centrifugation and washed. The obtained bacterial cells were suspended in 200 mM NaCl, 50 mM sodium phosphate buffer, and 10 mM imidazole (pH 8.0), followed by ultrasonic disintegration for 5 minutes and centrifugation at 44,200×g for 30 minutes. Thus, the supernatant was obtained. The obtained supernatant was introduced at a flow rate of 0.1 ml/min into an Ni-column (Ni-NTA His-Bind Resin: Novagen; column volume: 50 ml) that had been preliminarily equilibrated with a solution A (300 mM NaCl, 50 mM sodium phosphate buffer, 20 mM imidazole, pH 8.0) for immobilization. […]

For experiment [2], the target named is T2, human vitamin D3 receptor (His-tag fusion protein) (Homo sapiens, UniProt P11473).
T2 construct: made in house; host or cells: Escherichia coli BL21 (DE3) Codon-plus, vector pQE30 Xa (QIAGEN)
T2 sequence (P11473 1-427): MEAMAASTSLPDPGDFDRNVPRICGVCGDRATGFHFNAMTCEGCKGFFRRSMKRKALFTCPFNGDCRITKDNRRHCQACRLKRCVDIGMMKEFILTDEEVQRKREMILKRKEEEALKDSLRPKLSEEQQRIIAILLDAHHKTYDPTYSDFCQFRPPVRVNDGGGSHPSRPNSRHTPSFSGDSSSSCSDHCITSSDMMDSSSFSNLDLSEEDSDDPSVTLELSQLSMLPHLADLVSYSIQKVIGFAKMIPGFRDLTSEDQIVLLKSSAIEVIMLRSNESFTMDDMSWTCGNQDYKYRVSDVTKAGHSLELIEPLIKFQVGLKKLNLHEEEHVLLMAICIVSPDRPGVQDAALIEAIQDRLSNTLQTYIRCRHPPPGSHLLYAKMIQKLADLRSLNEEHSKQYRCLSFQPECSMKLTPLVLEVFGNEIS
Description: Elution by human serum of vitamin D3 bound to His-tag fusion vitamin D3 receptor protein immobilised on Ni-column, HPLC quantification. The class given is binding. Conditions: carrier His-tag fusion vitamin D3 receptor protein on Ni-column; 20 ml human serum then 10 ml solution A at 0.1 ml/min. The protocol:
as §1, with “For” for “A human albumin sequence was expressed with the use of Escherichia coli BL21 (DE3) Codon-plus as a His-tag fusion protein (using a vector (pQE30 Xa; QIAGEN)). For”

For experiment [3], the system named is osteoporosis model rats (ovariectomized aged rats). Nature of the experiment: Bone regeneration in osteoporosis model rats (ovariectomized aged rats). The settings on record: calcitriol dissolved with vitamin D3 receptor carrier protein; i.v. 3 times per week, 0.3 μg/kg; four months later. The class given is in vivo, rat. How it is done: The resultant was allowed to stand still overnight at 22° C. and eluted with a solution A as in the case of Example 1. The eluate was introduced into a benzamidine column (GE Healthcare Bioscience; HiTrap Benzamidine FF (high sub) column) in a general purification step, during which a high-purity vitamin D3 receptor protein was purified. Accordingly, a drug carrier was obtained.
The obtained liquid was administered 3 times per week via intravenous injection to osteoporosis model rats (ovariectomized aged rats) such that the calcitriol concentration was maintained at 0.3 μg/kg.

T1 sequence (P02768 25-609): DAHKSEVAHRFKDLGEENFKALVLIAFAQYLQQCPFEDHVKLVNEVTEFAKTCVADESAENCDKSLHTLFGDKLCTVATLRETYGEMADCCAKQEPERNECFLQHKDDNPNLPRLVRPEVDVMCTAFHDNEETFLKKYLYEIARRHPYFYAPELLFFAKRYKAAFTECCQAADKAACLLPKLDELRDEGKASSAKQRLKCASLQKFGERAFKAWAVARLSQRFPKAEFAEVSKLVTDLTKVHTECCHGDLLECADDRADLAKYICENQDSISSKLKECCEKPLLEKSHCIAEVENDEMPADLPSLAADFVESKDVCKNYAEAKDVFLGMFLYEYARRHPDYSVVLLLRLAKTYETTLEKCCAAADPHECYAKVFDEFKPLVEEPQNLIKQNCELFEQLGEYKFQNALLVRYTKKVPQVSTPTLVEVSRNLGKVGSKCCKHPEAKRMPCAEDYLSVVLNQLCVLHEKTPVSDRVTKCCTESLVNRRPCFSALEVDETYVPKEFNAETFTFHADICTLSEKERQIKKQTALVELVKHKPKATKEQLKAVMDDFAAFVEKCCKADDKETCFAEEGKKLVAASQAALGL

With `C=C1CC[C@H](O)C/C1=C/C=C1\CCC[C@]2(C)[C@@H]([C@H](C)CCCC(C)C)CC[C@@H]12` [Vitamin D3, vitamin D3], the “amount of vitamin D3 eluted from the column, of the total amount of bound vitamin” value in experiment [1] is on record as “approximately 70%”; in experiment [2] it was “approximately 5%”.

`C=C1/C(=C\C=C2/CCC[C@]3(C)[C@@H]([C@H](C)CCCC(C)(C)O)CC[C@@H]23)C[C@@H](O)C[C@@H]1O` [calcitriol, 1α,25-dihydroxyvitamin D3]: the “induction of bone regeneration” value in experiment [3] is given as “induction of bone regeneration in the rats was confirmed”.
